Experiments:
[1] = system: cardiomyocyte apoptosis and infarct size; conditions: rats; cited from earlier work
[2] = system: infarct size in rat hearts; test: I/R MI rat model, 30 minutes ischemia and 24 hours reperfusion; type: in vivo; conditions: 5 mg/kg SR-3306; anesthetized rats; p<0.05
Procedure: The in vivo efficacy of SR-3306 in anesthetized rats after 30 minutes ischemia and 24 hours reperfusion was evaluated.

H9c2 cells [3] = test: Cell viability under oxidative stress (Cell-Titer Glo luminescent assay); type: cell-based; conditions: 25 μM H2O2 + 500 nM SR-3306
Procedure: (§1) A similar effect was seen when mitochondrial membrane potential was measured by Rhodamine 123 detection. […] Similarly, both ROS generation and membrane depolarization effects elicited by oxidative stress in H92c cells were blocked by inhibition of JNK with the small molecule, SR-3306 (commercially available from Calbiochem). Finally, the effect of SR-3306 or Tat-Sab on cell viability in response to oxidative stress was measured by a Cell-Titer Glo luminescent assay. H9c2 cells treated with 25 μM H2O2 were ˜40% viable, whereas addition of 500 nM SR-3306 to cells treated with 25 μM H2O2 increased viability to ˜80%, and addition of 3 μM Tat-Sab peptide to cells treated with 25 μM H2O2 increased viability to ˜65% compared to 95% viable in untreated cells.

H9c2 cells [4] = test: Mitochondrial membrane potential under H2O2 (Rhodamine 123 detection); type: cell-based; conditions: 25 μM H2O2
Procedure: (§2) To test whether JNK mitochondrial localization had effects on mitochondrial function we measured the impact of Tat-Sab, and a small molecule JNK inhibitor, SR-3306 (commercially available from Calbiochem), on ROS generation and mitochondrial membrane depolarization in H9c2 cells treated with H2O2. The ROS fluorescence/cell in the absence of oxidative stress (PBS), was compared to treatment with either 25 μM H2O2, or 25 μM H2O2+500 nM SR-3306, or 25 μM H2O2+3 μM Tat-scramble peptide, or 25 μM H2O2+3 μM Tat-Sab peptide.
as §1

H9c2 cells [5] = test: ROS generation under H2O2 oxidative stress; type: cell-based; conditions: 25 μM H2O2 + 500 nM SR-3306
Procedure: as §2

Row | SMILES | cardiomyocyte apoptosis and infarct size after I/R [1] | infarct size (IS) [2] | cell viability (H9c2 cells [3]) | mitochondrial membrane potential perturbation / depolarization (H9c2 cells [4]) | reduction of ROS generation compared to 25 μM H2O2 treatment (H9c2 cells [5])
1 | N#CC(c1ccnc(NCCc2cccnc2)n1)c1nc2ccccc2s1 (centres unmarked) [AS601245] | decreased cardiomyocyte apoptosis and infarct size | – | – | – | –
2 | Cc1ccc(-c2ncn(-c3ccc(Nc4nccc(-c5cccc(N6CCOCC6)c5)n4)cc3)n2)cn1 [SR-3306] | – | 23±3.5 % of AAR | ~80% | blocked | ~2 fold

From patent US9850276B2, “Bidentate-binding modulators of LRRK2 and JNK kinases” (THE SCRIPPS RESEARCH INSTITUTE, priority 2013, dated 2017)
